In US20030031715A1, “Pharmaceutical applications of hydrotropic agents, polymers thereof, and hydrogels thereof” (priority 2000, published 2003):
Converted amounts (≈) assume the structure as drawn.

How the values were obtained:
A-498 = experiment: Antitumor cytotoxicity GI50, MTT bioassay; assay type: cell-based; settings: Homo sapiens, A498, A-498 (kidney)
Excerpt: (§1) Purdue Cancer Center Cell Culture Laboratory has provided bioassay service for measuring antitumor cytotoxicity for many years. […] The standard bioassay is done in 96-well microtiter plates using MTT [3-(4,5-dimethylthiazole-2-yl)-2,5-diphenytetrazolium bromide]. MTT is cleaved in the mitochondria of live cells to produce a dark blue formazan product. […] Adriamycin is used as an internal reference antitumor agent for the quality control of the standardized cytotoxicity assay.
(§2) The results of cytotoxicity evaluations are compared with those of animal experiments to examine what formulations were optimal for each experiment.

A-549 = experiment: Antitumor cytotoxicity GI50, MTT bioassay; assay type: cell-based; settings: Homo sapiens, A549, A-549 (lung)
Excerpt: as §1, §2

HT-29 = experiment: Antitumor cytotoxicity GI50, MTT bioassay; assay type: cell-based; settings: Homo sapiens, HT-29 (colon)
Excerpt: as §1, §2

MCF-7 = experiment: Antitumor cytotoxicity GI50, MTT bioassay; assay type: cell-based; settings: Homo sapiens, MCF7, MCF-7 (breast)
Excerpt: as §1, §2

PC-3 = experiment: Antitumor cytotoxicity GI50, MTT bioassay; assay type: cell-based; settings: Homo sapiens, PC-3 (prostate)
Excerpt: as §1, §2

PaCa-2 = experiment: Antitumor cytotoxicity GI50, MTT bioassay; assay type: cell-based; settings: Homo sapiens, PaCa-2 (pancreas)
Excerpt: as §1, §2

[1] = Progesterone aqueous solubility in hydrotropic solutions; assay type: physicochemical
Excerpt: (§3) These compounds were also used to examine the solubility increase of other poorly soluble drugs. […] Their chemical structures are shown below: [drawing 48]

[2] = log (CO/CW), octanol and water; cited from earlier work
[3] = at 37° C.; cited from earlier work
physchem = experiment: physchem
Excerpt: as §3

SMILES | GI50 (A-498) [µg/mL] | GI50 (A-549) [µg/mL] | GI50 (HT-29) [µg/mL] | GI50 (MCF-7) [µg/mL] | GI50 (PC-3) [µg/mL] | GI50 (PaCa-2) [µg/mL] | Progesterone solubility in hydrotropic solutions ([1]; 0.0 M, 37° C., mean ±SD, n=3) | solubility ([1]; 37 °C, 0 M, control in pure water, read-out: Progesterone aqueous solubility) [µg/mL] | solubility ([1]; water without hydrotropic agent, water, 0.0 M, 37° C., mean ±SD, n=3, read-out: Progesterone solubility in hydrotropic solutions) [µg/mL] | Partition Coefficient [2] | Water Solubility (μM) [3] [µM] | Griseofulvin aqueous solubility (physchem) [µg/mL] | solubility (physchem; 37 °C, water) [µg/mL]
COc1cccc2c1C(=O)c1c(O)c3c(c(O)c1C2=O)C[C@@](O)(C(=O)CO)C[C@@H]3O[C@H]1C[C@H](N)[C@H](O)[C@H](C)O1 [Adriamycin] | 0.005 (≈ 0.0092 µM) | 0.005 (≈ 0.0092 µM) | 0.03 (≈ 0.0552 µM) | 0.2 (≈ 0.368 µM) | 0.02 (≈ 0.0368 µM) | 0.005 (≈ 0.0092 µM) |  |  |  |  |  |  | 
CC(=O)[C@H]1CC[C@H]2[C@@H]3CCC4=CC(=O)CC[C@]4(C)[C@H]3CC[C@]12C [Progesterone] |  |  |  |  |  |  | 0.0012 ± 0.0000 | 1.2 (≈ 3.82 µM) | 1.2 (≈ 3.82 µM) | 3.84 | 3.8 |  | 
COC1=CC(=O)C[C@@H](C)[C@]12Oc1c(Cl)c(OC)cc(OC)c1C2=O [Griseofulvin] |  |  |  |  |  |  |  |  |  | 2.07 | 19.8 | 7 | 7 (≈ 19.8 µM)
